In patent US20100255086A1, “Method for oral mucosal absorption of acetyl salycylic acid” (priority 2009, published 2010):

What was measured:
[1] = cited from earlier work
[2] = long-term treatment; cited from earlier work
[3] = cited from earlier work; remark: listed apart in the source

**Q.** Which results are given for CC(=O)Oc1ccccc1C(=O)O [aspirin, acetyl salicylic acid]?
**A.** solubility in water [1]: does not dissolve in water; severe gastrointestinal complication [2]: up to 30%; Buccal absorption (normal buccal pH, no buffer added): 5%; absorbed (buccal) (pH of 2.5, buffer solution added): 70%; acetyl salicylic acid reaching the stomach inactivated through deacetylation [3]: At least thirty two
